Results on 15 compounds are retold here after patent US20240016942A1, “STAT DEGRADERS AND USES THEREOF” (Kymera Therapeutics, Inc., priority 2020, published 2024).

Each structure is given as a SMILES string.

In the first experiment the target is T1, STAT3 (Homo sapiens, UniProt P40763).
T1 construct: expressed in transfected cells; host or cells: A549
T1 sequence (P40763 whole entry): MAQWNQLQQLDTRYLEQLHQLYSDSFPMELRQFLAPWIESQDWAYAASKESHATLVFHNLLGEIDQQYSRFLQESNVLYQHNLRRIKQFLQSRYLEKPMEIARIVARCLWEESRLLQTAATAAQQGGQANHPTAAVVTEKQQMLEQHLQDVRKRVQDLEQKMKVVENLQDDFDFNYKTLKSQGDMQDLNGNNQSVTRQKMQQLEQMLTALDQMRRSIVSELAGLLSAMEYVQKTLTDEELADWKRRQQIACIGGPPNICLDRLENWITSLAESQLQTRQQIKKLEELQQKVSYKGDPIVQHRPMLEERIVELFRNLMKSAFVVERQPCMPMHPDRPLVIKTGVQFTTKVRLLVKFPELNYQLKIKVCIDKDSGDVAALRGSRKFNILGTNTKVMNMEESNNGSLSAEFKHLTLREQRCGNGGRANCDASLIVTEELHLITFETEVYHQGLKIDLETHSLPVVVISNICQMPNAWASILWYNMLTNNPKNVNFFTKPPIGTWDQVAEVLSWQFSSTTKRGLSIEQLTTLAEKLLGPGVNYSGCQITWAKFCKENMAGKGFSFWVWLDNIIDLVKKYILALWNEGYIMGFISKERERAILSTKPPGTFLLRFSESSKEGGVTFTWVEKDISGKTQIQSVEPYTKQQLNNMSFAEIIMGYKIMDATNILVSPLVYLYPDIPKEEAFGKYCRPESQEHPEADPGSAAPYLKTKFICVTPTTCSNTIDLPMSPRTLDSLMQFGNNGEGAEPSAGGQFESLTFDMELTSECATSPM
In words: STAT3 HiBiT degradation assay (Nano-Glo HiBiT lytic detection) in transfected A549 cells. Format: cell-based. Conditions: 24 h compound incubation, read-out: STAT3 HiBIT A549 degradation 24 h: Average external-Abs DC50. The essentials:
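Transfected A549 cells (~2000/well) treated 24 h at 37° C with compound in 3-fold, 10-point dilution series. HiBiT-tagged STAT3 remaining measured by Nano-Glo HiBiT lytic luminescence, normalised to negative and positive controls; DC50 from four-parameter curve fit.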
On the technique in general: With HiBiT, luminescence reflects the tagged protein that the partner subunit can reach.
Turning to `Cn1c(=O)n(C2CCC(=O)NC2=O)c2ccc(CCCCCCC(=O)N3CC[C@H]4CC[C@@H](C(=O)N[C@@H](CCC(N)=O)C(=O)NCc5ccc(S(C)(=O)=O)cc5)N4C(=O)[C@@H](NC(=O)c4cc5cc(C(=O)P(=O)(O)O)ccc5[nH]4)C3)cc21` (stereo partly drawn) [I-76], the DC50 – broadly, the midpoint of the concentration-degradation curve – was 0.01 to 0.1 µM. Regarding `CC(=O)N1CC[C@H]2CC[C@@H](C(=O)N[C@@H](CCC(N)=O)COc3cc(F)cc(CCCC(=O)N[C@H](C(=O)N4C[C@H](O)C[C@H]4C(=O)N[C@@H](C)c4ccc(-c5scnc5C)cc4)C(C)(C)C)c3Cl)N2C(=O)[C@@H](NC(=O)c2cc3cc(C(=O)P(=O)(O)O)ccc3[nH]2)C1` [I-77], the DC50 is < 0.01 µM.

In the case of `CC(=O)N1CC[C@H]2CC[C@@H](C(=O)N[C@@H](CCC(N)=O)COc3cc(C)cc(CCCC(=O)N[C@H](C(=O)N4C[C@H](O)C[C@H]4C(=O)N[C@@H](C)c4ccc(-c5scnc5C)cc4)C(C)(C)C)c3F)N2C(=O)[C@@H](NC(=O)c2cc3cc(C(=O)P(=O)(O)O)ccc3[nH]2)C1` [I-78], the DC50 is < 0.01 µM. The same measure, in the same setting: in the case of `CC(=O)N1CC[C@H]2CC[C@@H](C(=O)N[C@@H](CCC(N)=O)COc3cc(F)cc(CCCC(=O)N[C@H](C(=O)N4C[C@H](O)C[C@H]4C(=O)N[C@@H](C)c4ccc(-c5scnc5C)cc4)C(C)(C)C)c3F)N2C(=O)[C@@H](NC(=O)c2cc3cc(C(=O)P(=O)(O)O)ccc3[nH]2)C1` [I-79] it was < 0.01 µM; in that of `CC(=O)N1CC[C@H]2CC[C@@H](C(=O)N[C@@H](CCC(N)=O)COc3cc(C)cc(CCCC(=O)N[C@H](C(=O)N4C[C@H](O)C[C@H]4C(=O)N[C@@H](C)c4ccc(-c5scnc5C)cc4)C(C)(C)C)c3Cl)N2C(=O)[C@@H](NC(=O)c2cc3cc(C(=O)P(=O)(O)O)ccc3[nH]2)C1` [I-80], < 0.01 µM; in that of `Cn1c(=O)n(C2CCC(=O)NC2=O)c2ccc(CCCCCCc3cc4c5c(c3)C[C@@H](C(=O)N[C@@H](CCC(N)=O)C(=O)NCc3ccc(S(C)(=O)=O)cc3)N5C(=O)[C@@H](NC(=O)c3cc5cc(C(=O)P(=O)(O)O)ccc5[nH]3)CC4)cc21` (stereo partly drawn) [I-81, (2-(((3S,6S)-6-(((S)-5-amino-1l-((4-(methylsulfonyl)benzyl)amino)-1,5-dioxopentan-2-yl)carbamoyl)-9-(6-(1-(2,6-dioxopiperidin-3-yl)-3-methyl-2-oxo-2,3-dihydro-1H-benzo[d]imidazol-5-yl)hexyl)-4-oxo-1,2,3,4,6,7-hexahydroazepino[3,2,1-hi]indol-3-yl)carbamoyl)-1H-indole-5-carbonyl)phosphonic acid], 0.01 to 0.1 µM. On the same count and under the same terms, then `COC(=O)N1CC[C@H]2CC[C@@H](C(=O)N[C@@H](CCC(N)=O)COc3cccc(CCCC(=O)N[C@H](C(=O)N4C[C@H](O)C[C@H]4C(=O)N[C@@H](C)c4ccc(-c5scnc5C)cc4)C(C)(C)C)c3Cl)N2C(=O)[C@@H](NC(=O)c2cc3cc(C(F)(F)P(=O)(O)O)ccc3[nH]2)C1` [I-84], with > 1 µM; and `COC(=O)N1CC[C@H]2CC[C@@H](C(=O)N[C@@H](CCC(N)=O)COc3cccc(CCCC(=O)N[C@H](C(=O)N4C[C@H](O)C[C@H]4C(=O)N[C@@H](C)c4ccc(-c5scnc5C)cc4)C(C)(C)C)c3Cl)N2C(=O)[C@@H](NC(=O)c2cc3cc(C(=O)P(=O)(O)O)ccc3[nH]2)C1` [I-87], with > 1 µM; and `CC(C)c1ccc(CNC(=O)[C@H](CCC(=O)O)NC(=O)[C@@H]2CC[C@@H]3CCN(C(=O)[C@H]4CC[C@@H](CCc5ccc6c(c5)n(C)c(=O)n6C5CCC(=O)NC5=O)CC4)C[C@H](NC(=O)c4cc5cc(C(=O)P(=O)(O)O)ccc5[nH]4)C(=O)N32)cc1` (stereo partly drawn) [I-96, (4S)-4-[[(5S,8S,10aR)-6-oxo-5-[5-(phosphonocarbonyl)-1H-indole-2-amido]-3-[(1s,4s)-4-[2-[1-(2,6-dioxopiperidin-3-yl)-3-methyl-2-oxo-1,3-benzodiazol-5-yl]ethyl]cyclohexanecarbonyl]-octahydropyrrolo[1,2-a][1,5]diazocin-8-yl]formamido]-4-[[(4-isopropylphenyl)methyl]carbamoyl]butanoic acid], with > 1 µM. Same read-out and setting: in the case of `CC(C)c1ccc(CNC(=O)[C@H](CCC(N)=O)NC(=O)[C@@H]2CC[C@@H]3CCN(C(=O)[C@H]4CC[C@@H](CCc5ccc6c(c5)n(C)c(=O)n6C5CCC(=O)NC5=O)CC4)C[C@H](NC(=O)c4cc5cc(C(F)(F)P(=O)(O)O)ccc5s4)C(=O)N32)cc1` (stereo partly drawn) [I-97] it was > 1 µM; in that of `CNC(=O)N1CC[C@H]2CC[C@@H](C(=O)N[C@@H](CCC(N)=O)COc3cccc(CCCC(=O)N[C@H](C(=O)N4C[C@H](O)C[C@H]4C(=O)N[C@@H](C)c4ccc(-c5scnc5C)cc4)C(C)(C)C)c3Cl)N2C(=O)[C@@H](NC(=O)c2cc3cc(C(F)(F)P(=O)(O)O)ccc3s2)C1` [I-98], > 1 µM.

The experiment is the same for the next values; noted with them: read-out: STAT3 HiBIT A549 degradation 24 h: Average external-Abs DC50, 24 h compound incubation.
With `CC(=O)N1CC[C@H]2CC[C@@H](C(=O)N[C@@H](CCC(N)=O)COc3cccc(CCCC(=O)N[C@H](C(=O)N4C[C@H](O)C[C@H]4C(=O)N[C@@H](C)c4ccc(-c5scnc5C)cc4)C(C)(C)C)c3Cl)N2C(=O)[C@@H](NC(=O)c2cc3cc(C(F)(F)P(=O)(O)O)ccc3s2)C1` [I-83], the 50% degradation concentration (DC50) was > 1 µM.

For `COC(=O)N1CC[C@H]2CC[C@@H](C(=O)N[C@@H](CCC(N)=O)COc3cccc(CCCC(=O)N[C@H](C(=O)N4C[C@H](O)C[C@H]4C(=O)N[C@@H](C)c4ccc(-c5scnc5C)cc4)C(C)(C)C)c3Cl)N2C(=O)[C@@H](NC(=O)c2cc3cc(C(=O)P(=O)(O)O)ccc3s2)C1` [I-86], the DC50 is > 1 µM. Take `Cc1ncsc1-c1ccc([C@H](C)NC(=O)[C@@H]2C[C@@H](O)CN2C(=O)[C@@H](NC(=O)CCCc2cccc(OC[C@H](CCC(N)=O)NC(=O)[C@@H]3CC[C@@H]4CCCC[C@H](NC(=O)c5cc6cc(C(=O)P(=O)(O)O)ccc6s5)C(=O)N43)c2Cl)C(C)(C)C)cc1` [I-88]: the 50% degradation concentration (DC50) is > 1 µM.

Consider `Cc1ncsc1-c1ccc([C@H](C)NC(=O)[C@@H]2C[C@@H](O)CN2C(=O)[C@@H](NC(=O)CCCc2cccc(OC[C@H](CCC(N)=O)NC(=O)[C@@H]3CC[C@@H]4CCCC[C@H](NC(=O)c5cc6cc(C(F)(F)P(=O)(O)O)ccc6s5)C(=O)N43)c2Cl)C(C)(C)C)cc1` [I-89], for which the 50% degradation concentration (DC50) was > 1 µM.
